Assay results published in PubChem BioAssay AID179 (DTP/NCI, 2004).
The source made the active and inactive calls.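 The calls were made as follows: active = compounds giving half or more protection of infected cells from virus-caused growth loss, again on retest; inactive = the rest.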 Where a SMILES comes first, the peptide text is derived from it. [ ]: non-standard residue; d: D form. The star is where a group is joined. ξ: configuration not given here. ξD = NC(CC(=O)O)C(=O)O; Boc = CC(C)(C)OC(=O)*; Aib = CC(C)(N)C(=O)O; OtBu = CC(C)(C)O*

System: CEM cells HIV-1 protection, formazan growth assay
Test: NCI AIDS Antiviral Assay
Details: for IC50: measured here: growth of uninfected CEM cells
Outline: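 Category rules: moderately active means at least 50% protection on retest, and confirmed active means 100% protection reproducibly. The underlying data came from a formazan growth assay in HIV-1-infected CEM cells.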

Compound | EC50 [µM] | IC50 [µM] | outcome
CN(C)c1ccc(/C=C(\C#N)C(=O)c2ccccc2)cc1Br | > 14.8 | > 14.8 | –
CN1B(c2ccccc2)N(C)C(=O)N(C)C1=O | > 200 | > 200 | –
O=Cc1[nH]c(=O)[nH]c(=O)c1C(=O)O | > 200 | > 200 | –
Nc1ccc(S2(c3ccc(N)cc3)C=C(c3ccccc3)C(c3ccccc3)=C2)cc1 | > 200 | > 200 | –
CCOP(=O)(Nc1ccccc1P(=O)(OCC)OCC)OCC | > 200 | > 200 | –
O=C1c2cccc3cc([N+](=O)[O-])cc(c23)C(=O)N1CCc1ccccn1 | > 200 | 4.37 | –
NC(N)=NS(=O)(=O)c1ccc(NNC(=O)c2cccc3c(=O)c4ccccc4[nH]c23)cc1 | > 200 | 33.9 | –
Cc1cc(S(=O)(=O)Nc2nnc3c4scc(C)c4ncn23)c(S)cc1Cl | 45.7 | 50.1 | –
CN(C)c1ccc(/C=C(\C#N)c2c(Cl)cccc2Cl)cc1 | > 200 | 4.57 | –
CC(C)(C)OC(=O)N(CCCCNCc1ccc2ccccc2c1)CCCNCc1ccc2ccccc2c1 | > 2 | 1.05 | –
COc1cc2c(c(O)c1OC)c(=O)c1ccccc1n2C | > 200 | 66.1 | –
CCC(=O)N=c1sc(SCc2ccccc2)nn1C(=O)SC (tested in a mixture with another compound) | > 200 | 10.7 | –
Nc1nc(SCC(=O)c2ccccc2)nc2nc3c(c(-c4ccccc4)c12)CCCC3 | > 100 | 66.1 | –
c1snnc1-c1cnns1 | > 200 | > 200 | –
OCC(O)COc1c(Cl)ccc(Cl)c1Cl (configuration not stated) | 87.1 | 275 | –
COc1ccc(C2Oc3c(cccc3OC)C=C2[N+](=O)[O-])cc1 (configuration not stated) | > 200 | 1.51 | –
COc1ccc(/C=C/C(=O)c2sc(Nc3ccc([N+](=O)[O-])cc3)nc2C)cc1 | > 47.9 | 39.8 | –
O=C1NC2=C(CCCCC/C2=N\O)C12CCCCCC2 | – | – | inactive
Cc1noc2c1C(=O)CCC2 | > 1660 | 148 | –
COc1ccccc1C1C2=C(COC2=O)Oc2cc3c(cc21)OCO3 (configuration not stated) | > 200 | 2.19 | –
Cc1[nH]c2ccccc2c1C1Cc2ccccc2N1C(=O)/C=C/C=C/c1ccccc1 (configuration not stated) | > 9.33 | > 9.33 | –
COc1ccc(CCn2cncn2)cc1 | > 1050 | > 1050 | –
Cc1ccccc1NC(=O)c1[nH]c(=S)nc(N)c1-c1ccccc1C | > 97.7 | > 97.7 | –

Compound | EC50 [µM] | IC50 [µM] | outcome
CC(C)CCCC(C)[C@H]1CCC2C3C[C@@H](CCC=C(c4cc(Cl)c(O)c(C(=O)O)c4)c4cc(Cl)c(O)c(C(=O)O)c4)[C@H]4CCCC[C@]4(C)C3CC[C@@]21C (some centres not stated) | 20 | > 100 | –
COc1cccc(/S(C)=N/S(=O)(=O)c2ccc(C)cc2)c1 (configuration not stated) | > 776 | 214 | –
CCN(CC)c1ccc(C(=C2C=CC(=[N+](CC)CC)C=C2)c2ccc(S(=O)(=O)O)cc2S(=O)(=O)[O-])cc1 | – | – | inactive
O=C1C(Cl)N(c2cccc([N+](=O)[O-])c2)C1c1c[nH]c2ccccc12 (configuration not stated) | > 105 | 5.01 | –
COC(=O)C1(O)C(c2ccccc2)NC2(C)CCCC21 (configuration not stated) | > 200 | > 200 | –
Nc1c(O)cc(N=C2C(=O)C=CC=C2C(=O)O)c(O)c1C(=O)O | – | – | inactive
COC(=O)/C=C/c1ccc2c(c1)CC1(C2)Cc2cc3c(cc2C1=O)CCC3 (configuration not stated) | > 100 | > 100 | –
C=C1C(=O)O[C@@H]2CC(C)C3C(O)CC(O)[C@@]3(C)C[C@H]12 (some centres not stated) | > 933 | 14.1 | –
CN(C)c1ccc(-c2c(C#N)c(O)n(NS(=O)(=O)c3ccccc3)c(=O)c2C#N)cc1 | > 200 | > 200 | –
O=c1c(Cl)cc2nc3ccccc3sc-2c1Cl | > 9.55 | 8.91 | –
C[N+]12CCCc3cc(CO)cc(c31)CCC2 | 112 | 603 | –
O=C1CCCC(=O)N1n1c(Cc2ccc(Cl)cc2)n[nH]c1=O | > 200 | > 200 | –
CC(=O)NNc1nc(C)c(C(=O)NNC(=O)C(=O)Nc2ccc(C)cc2[N+](=O)[O-])s1 | > 83.2 | 39.8 | –
CCCCCC#CCOC(=O)C(=[N+]=[N-])P(=O)(c1ccccc1)c1ccccc1 | > 200 | 95.5 | –
C=CCON(C(=O)OC(C)(C)C)C(C)(C)C | > 200 | > 200 | –
O=C(O)c1c2c(cc3c1CC(Cc1ccccc1)C3=O)CCC2 (configuration not stated) | > 200 | 64.6 | –
OCC1C2C=CC(O2)[C@H]1CO (some centres not stated) | – | – | inactive
C[C@@H](NC(=O)Cn1c(Cl)nc2ccccc21)c1ccccc1 | > 200 | 13.5 | –
C=CC1C(OC2OC(CO)C(O)C(O)C2O)OC=C(C(=O)OC)C1CC=O (configuration not stated) | > 646 | > 646 | –
CCOc1cccc2cccnc12 | > 200 | > 200 | –
O=c1oc2c3c4c(cc2c2c1CCC2)CCCN4CCC3 | > 6.76 | > 6.76 | –
COc1ccc2cc(-c3ccc(OC)c(OC)c3)c(=O)oc2c1 | > 200 | > 200 | –
COc1ccc(S(=O)(=O)c2ccc(C(=O)O)cc2)cc1 | > 200 | > 200 | –

Compound | EC50 [µM] | IC50 [µM] | outcome
COc1ccccc1NC(=O)CC(=O)n1nc(C)c(N=Nc2ccccc2Cl)c1C | – | – | inactive
CCOc1ccc(N=Nc2ccc(N)cc2N)cc1 | > 200 | 107 | –
COC(=O)CCC(C)C1CCC2C3=CC(=O)C4CC(OC(C)=O)CCC4(C)C3CC(OC(C)=O)C21C (configuration not stated) | > 51.3 | 37.2 | –
CC(C)(O)[C@@H]1CC[C@@]2(C)CCCC(O)C2(O)C1 (some centres not stated) | – | – | inactive
Cc1cc2occ(C)c(=O)c2c2c1OC(C)(C)S2 | > 100 | 51.3 | –
O=C(O)C1(C(=O)O)CC1(C(=O)O)C(=O)O | – | – | inactive
COC(=O)C(C)NC(=O)C(CCSC)NC(=O)C(Cc1ccccc1)NC(=O)OC(C)(C)C (stereo not drawn) (Boc-Phe-Met-Ala-OMe; configuration not given here) | > 200 | – | –
CSc1nc2c(n1-c1ccccc1)C(=O)C(OS(=O)(=O)c1ccccc1)C(=O)N2 (configuration not stated) | > 200 | > 200 | –
CCC1(Br)OC1=O (configuration not stated) | > 200 | 107 | –
CC1(C)CC(=O)C(CC2C(=O)CC(C)(C)CC2=O)C(=O)C1 | > 200 | > 200 | –
COc1nc(N)c(N=O)c(=O)n1C | – | – | inactive
CC(=O)OC1CCC2(C)C(C)C(C)CCC2(O)C1O (configuration not stated) | > 200 | 15.1 | –
COc1ccc(N=c2ssc(SC)c2-c2ccccc2)cc1 | > 200 | 46.8 | –
COC(=O)C(C)(C)NC(=O)C(C)(C)NC(=O)C(CC(=O)OC(C)(C)C)NC(=O)OC(C)(C)C (configuration not stated) (Boc-[ξD](OtBu)-[Aib]-[Aib]-OMe) | > 200 | > 200 | –
CN1CCC/C1=C1\C(=O)c2cccn2C1=O | > 200 | > 200 | –
CCOC(=O)c1nc2cc(F)c(N3CCOCC3)cc2[nH]c1=O | > 200 | 95.5 | –
COC(=O)C(Cc1ccccc1)NC(=O)CCCNC(=O)OCc1ccccc1 (configuration not stated) | > 200 | 87.1 | –
CN(Cc1cnc2nc(N)nc(N)c2n1)c1ccc(C(=O)NC(CCC(=O)O)C(=O)O)c2ccccc12 (configuration not stated) | > 0.2 | 0.00219 | –
CC1=CC(=O)/C(=C\N2C(=O)CC(=O)NC2=S)C(=O)O1 | > 100 | > 100 | –
COC1CC(OC2C(C)OC(OC3C(C)OC(OC4C(C)OC(O[C@H]5CC[C@@]6(C)C(=CC[C@]7(O)[C@@H]6C[C@@H](OC(=O)/C=C(\C)C(C)C)[C@@]6(C)[C@]7(O)CC[C@@]6(O)C(C)=O)C5)CC4OC)CC3OC)CC2OC)OC(C)C1O (some centres not stated) | > 200 | 27.5 | –
CC12NC(=C(C#N)C#N)C(C#N)=C3NC(N)=C(C#N)C(=C31)Oc1ccccc12 (configuration not stated) | > 200 | 5.89 | –
COC(=O)c1cc(C)ccc1C1CN=NC12Cc1ccc(C)cc1C2=O (configuration not stated) | 145 | 182 | –
O=C1C=CC=C/C1=C1\N=C(c2ccccc2OCC(=O)c2ccccc2)SS1 | > 50.1 | 4.27 | –

Compound | EC50 [µM] | IC50 [µM] | outcome
O=S(=O)([O-])c1ccc(N=Cc2ccccc2[O-])cc1.O=S(=O)([O-])c1ccc(N=Cc2ccccc2[O-])cc1.[Co+2] | > 407 | 23.4 | –
N=C(c1ccccc1)N1CCCCC1 | – | – | inactive
C/C(=N\Nc1ncnc2ccccc12)c1ccccn1 | > 0.2 | 0.0257 | –
O=C1c2ccccc2C(=O)N1CCCC[P+](c1ccccc1)(c1ccccc1)c1ccccc1 | > 200 | 15.5 | –
COC(=O)C1C2C=CC(C2)N1[C@@H](C)c1ccccc1 (some centres not stated) | > 28.2 | > 28.2 | –
O=C1C(Br)=C[C@H]2C3C=CC(Br)(C3=O)[C@@H]12 (some centres not stated) | > 794 | 3.72 | –
CCCCCC=C1c2ccccc2C=Cc2ccccc21 | > 200 | 72.4 | –
COc1ccc(CNc2cnc3cc(N)ccc3n2)cc1 | > 67.6 | > 67.6 | –
C(=C/c1nnnn1-c1ccccc1)/Nc1ccccc1 | > 200 | 26.3 | –
COC(=O)c1c(CC(Cc2ccc3c(c2)CCCC3)C(=O)O)ccc2c1CCCC2 (configuration not stated) | > 200 | 58.9 | –
CCOC(=O)c1c(-c2ccc(Cl)cc2)c(C#N)c(=S)n(C2OC(CO)C(O)C(O)C2O)c1-c1ccccc1 (configuration not stated) | > 200 | 34.7 | –
O=S(CCc1ccccc1)Nc1ccccc1 (configuration not stated) | > 200 | > 200 | –
Clc1ccc(/C=N\N2CCCCCC2)c(Cl)c1 | – | – | inactive
NNC(=O)/C(=C/c1ccc(Cl)cc1Cl)NC(=O)c1ccccc1 | > 135 | 110 | –
Cc1cccc(C(C)C)c1NC(=O)C(=O)C(C(=O)c1ccccc1F)C1OC(=O)c2ccccc21 (configuration not stated) | > 200 | 15.8 | –
CN(C)CCSc1cccc(-c2cc(-c3cccs3)nc(SCCN(C)C)n2)c1 | > 282 | 2.24 | –
OC1[C@H](O)CN(OCc2ccccc2)C[C@@H]1O (some centres not stated) | > 200 | > 200 | –
O=C(c1ccccc1)c1ccsc1C(=O)O | > 200 | > 200 | –
NC(=S)NN=C1Cc2ccccc2C1 | > 200 | 145 | –
O=C(NO)c1ccc(O)c(O)c1 | > 1480 | 74.1 | –
